Assays:
[1] = system: L929 cells and primary mouse skin fibroblasts; test: Scar-in-a-jar immunostaining, effect of L-ascorbic acid type; type: cell-based; details: cell type not specified for this statement
Method: (§1) Inducing collagen deposition by fibroblasts in a two-dimensional model was studied. To determine whether L929 fibroblasts would deposit collagen in response to stimuli, well plate experiments were conducted following a protocol described in Good et al., “A High Content, Phenotypic ‘Scar-In-A-Jar’ Assay for Rapid Quantification of Collagen Fibrillogenesis Using Disease-Derived Pulmonary Fibroblasts,” BMC Biomedical Engineering, 1:14, 1-10 (2019), which is incorporated by reference herein in its entirety. Immunostaining experiments were carried out on L929 cells and primary mouse skin fibroblasts exposed to media containing L-ascorbic acid, FICOLL®, and TGF-β1. […] These findings indicate the relevance of and effects of cell type and L-ascorbic acid type on in vitro extracellular matrix deposition.

[2] = system: WI-38 human lung cells; test: Picrosirius red staining of decellularized extracellular matrix; type: cell-based; details: Permanox plastic 4-chamber slides, 250,000 cells/chamber, with vs without L-ascorbic acid
Method: One method that can be used for visualization and quantification of collagen deposition in the microfluidic device is picrosirius red staining. […] Cells were grown in chambers with or without a fibronectin coating and with or without L-asorbic acid. […] In the absence of a fibronectin coating, no visible collagen deposition remained after 14-15 minutes of decellularization. […] Cells appear to deposit collagen fibers that are retained, even in the absence of a fibronectin coating, with a short decellularization time of five minutes. […]

[3] = system: primary mouse skin fibroblasts; test: Scar-in-a-jar immunostaining, collagen deposition by fibroblasts in 2D; type: cell-based; details: media containing L-ascorbic acid, FICOLL and TGF-β1
Method: as §1

[4] = system: L929 cells; test: as above; type: cell-based, mouse; details: media containing L-ascorbic acid, FICOLL and TGF-β1
Method: as §1

[5] = system: RAW264.7 cells; test: F-actin visualization of macrophage morphology; type: cell-based, mouse; details: increasing concentrations of LPS
Method: (§2) L929 mouse fibroblasts and RAW264.7 mouse macrophages were fluorescently labelled with red and green […]® (Thermo Fisher Scientific) dyes respectively. Extensive studies were conducted to optimize cell seeding density, culture times, and biomaterial implantation. Cells were co-cultured two-dimensionally or within microfluidic devices described in Example 1, after which cancer spheroids or alginate-based biomaterials were implanted within the two-dimensional cultures and within the microfluidic devices. Immunostaining, fluorescence microscopy, Griess assays, and histological analysis were used to evaluate immune cell activation and fibrosis formation in response to the spheroids and implants. Griess Assays were performed on media collected from cultured cells. […] Co-culture of RAW264.7 and L929 cells were visualized with […]® dyes. […] F-actin visualization for RAW264.7 cells treated with LPS was performed. […] Co-culture of L929 and RAW264.7 cells was performed in the microfluidic device. L929 cells were cultured in 3D within the Matrigel channel, while macrophages were introduced in 2D from an adjacent channel. After 24 hours of co-culture, the cells were primarily retained within their respective channels.

[6] = system: RAW264.7 macrophages; test: Griess assay of nitrite production in media of cultured macrophages; type: cell-based, mouse; details: LPS stimulation of macrophages, 2D culture
Method: as §2

O=C1O[C@H]([C@@H](O)CO)C(O)=C1O [L-ascorbic acid]
effect of the type of L-ascorbic acid on Collagen I deposition [1]: had some effects
collagen deposition (picrosirius red) [2]: increase in collagen deposition

TGF-β1: transforming growth factor beta 1, stimulus for collagen deposition
Collagen I deposition in response to TGF-β1 treatment [3]: Some increases
α-SMA expression in response to TGF-β1 treatment [3]: Some increases
Collagen I deposition in response to TGF-β1 treatment [4]: did not have increased Collagen I deposition
α-SMA expression [4]: no α-SMA expression

lipopolysaccharide [LPS]
morphological changes (F-actin visualization) [5]: Morphological changes were observed
macrophage activation, as indicated by nitrite production [6]: led to macrophage activation

Reference: US20250277785A1, “MICROFLUIDIC DEVICES FOR EVALUATING FIBROSIS IN MATERIAL IMPLANTATION AND CANCER” (THE UNITED STATES OF AMERICA AS REPRESENTED BY THE …, priority 2022, published 2025)
